Assays:
[1] = Inhibition of SARS-CoV-2 nsp16 (1 to 298 residues) expressed in Escherichia coli BL21(DE3)RIL cells using RNA and [3H]SAM as substrate incubated for 1 hrs by SPA-based assay; set-up: species or system Severe acute respiratory syndrome coronavirus 2
[2] = Inhibition of N-terminal 6His-tagged SARS-CoV nsp14 N7-methyltransferase activity expressed in Escherichia coli using GpppAC4 synthetic RNA and [3H]-SAM as substrate incubated for 30 mins in presence of SAM by Liquid scintillation analysis; set-up: species or system Severe acute respiratory syndrome-related coronavirus
[3] = target: T1, Replicase polyprotein 1ab (Severe acute respiratory syndrome coronavirus 2, UniProt P0DTD1); experiment: Inhibition of C-terminal His-tagged SARS-CoV-2 PLpro BetaCoV/Wuhan/WIV04/2019 expressed in Escherichia coli BL21(DE3) using ISG-AMC substrate incubated for 3 hrs by FRET analysis
[4] = target: T1, Replicase polyprotein 1ab; experiment: Inhibition of SARS-CoV-2 main protease by FRET assay
[5] = tested on: SARS-CoV-2; experiment: Antiviral activity against SARS CoV-2 USA-WA1/2020 infected in African green monkey Vero E6 cells assessed as reduction in viral plaque formation incubated for 3 days by plaque reduction neutralization assay; assay type: functional, organism-based; details: Severe acute respiratory syndrome coronavirus 2, USA-WA1/2020, Vero C1008, 72 h
[6] = target: T1, Replicase polyprotein 1ab; experiment: Inhibition of recombinant SARS-CoV-2 PLpro expressed in Escherichia coli BL21 (DE3) using Arg-Leu-Arg-Gly-Gly-AMC as substrate preincubated for 5 mins followed by substrate addition measured after 6 mins by fluorescence based assay
[7] = tested on: SARS-CoV-2; experiment: Antiviral activity against SARS-CoV-2 infected in African green monkey Vero E6 cells assessed as inhibition of virus growth; assay type: functional, organism-based; details: Severe acute respiratory syndrome coronavirus 2, Vero C1008
[8] = target: Furin (Homo sapiens, UniProt P09958); experiment: Inhibition of furin (unknown origin)
Furin, sequence (P09958 whole entry): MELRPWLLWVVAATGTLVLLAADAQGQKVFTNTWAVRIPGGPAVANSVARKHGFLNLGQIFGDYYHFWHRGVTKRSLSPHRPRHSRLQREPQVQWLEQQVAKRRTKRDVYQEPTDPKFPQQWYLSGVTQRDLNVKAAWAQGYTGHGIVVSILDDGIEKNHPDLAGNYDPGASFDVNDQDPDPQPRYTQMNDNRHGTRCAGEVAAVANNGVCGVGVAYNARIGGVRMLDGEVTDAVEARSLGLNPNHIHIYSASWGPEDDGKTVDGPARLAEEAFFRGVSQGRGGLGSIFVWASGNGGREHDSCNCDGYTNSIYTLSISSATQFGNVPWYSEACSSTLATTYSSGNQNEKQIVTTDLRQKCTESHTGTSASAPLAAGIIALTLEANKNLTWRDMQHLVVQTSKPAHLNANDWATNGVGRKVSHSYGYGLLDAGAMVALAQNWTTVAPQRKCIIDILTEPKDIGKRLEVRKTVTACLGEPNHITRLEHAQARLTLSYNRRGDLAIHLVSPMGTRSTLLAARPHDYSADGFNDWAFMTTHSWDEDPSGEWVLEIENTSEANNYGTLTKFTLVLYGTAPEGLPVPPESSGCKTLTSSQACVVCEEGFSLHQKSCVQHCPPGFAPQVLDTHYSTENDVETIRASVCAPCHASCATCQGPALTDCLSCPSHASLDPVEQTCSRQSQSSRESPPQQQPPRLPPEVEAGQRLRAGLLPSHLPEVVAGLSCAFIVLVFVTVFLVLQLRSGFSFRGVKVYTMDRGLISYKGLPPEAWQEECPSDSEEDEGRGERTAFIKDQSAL

[9] = tested on: SARS-CoV-2; experiment: microbe, parasite or virus in culture; details: Severe acute respiratory syndrome coronavirus 2, Vero, 24 h
[10] = target: T1, Replicase polyprotein 1ab; experiment: Inhibition of recombinant SARS-CoV-2 Main protease by FRET analysis

N#Cc1cn([C@@H]2O[C@H](CSCC[C@H](N)C(=O)O)[C@@H](O)[C@H]2O)c2ncnc(N)c12
IC50 [1]: 1200 nM | IC50 [2]: 70 nM

CCOC(=O)/C=C/[C@H](C[C@@H]1CCNC1=O)NC(=O)[C@H](Cc1ccccc1)NC(=O)[C@@H](Cc1ccc(F)cc1)NC(=O)OC(C)(C)C
IC50 [3]: 60 nM | IC50 [4]: 1800 nM

CCOC(=O)/C=C/[C@H](C[C@@H]1CCNC1=O)NC(=O)[C@H](Cc1ccccc1)NC(=O)[C@H](N)Cc1ccccc1
IC50 [3]: 60 nM

Nc1ncnc2c1ncn2[C@@H]1O[C@H](C[C@@H](CO)CC[C@H](N)C(=O)O)[C@@H](O)[C@H]1O
IC50 [1]: 3400 nM | IC50 [2]: 190 nM

CCCCCCCCCCCCCCCc1cccc(O)c1C(=O)O [ANACARDIC ACID]
EC50 [5]: 9 µM

CC(C)[C@H](NC(=O)[C@H](CCCNC(=N)N)NC(=O)N[C@@H](Cc1ccccc1)C(=O)O)C(=O)N[C@H](C=O)CCCNC(=N)N [ANTIPAIN]
IC50 [6]: 3 nM | EC50 [7]: 640 nM

N=C(N)c1ccc(/N=N/Nc2ccc(C(=N)N)cc2)cc1 [DIMINAZENE]
IC50 [8]: 580 nM

CCCCCC/C=C\CCCCCCCc1cccc(O)c1C(=O)O [GINGKOLIC ACID]
EC50 [5]: 8.3 µM

N=C(N)Nc1ccc(C(=O)Oc2ccc3cc(C(=N)N)ccc3c2)cc1 [NAFAMOSTAT]
EC50 [9]: 10 nM

O=C(OC[C@H]1O[C@@H](OC(=O)c2cc(O)c(O)c(OC(=O)c3cc(O)c(O)c(O)c3)c2)[C@H](OC(=O)c2cc(O)c(O)c(OC(=O)c3cc(O)c(O)c(O)c3)c2)[C@@H](OC(=O)c2cc(O)c(O)c(OC(=O)c3cc(O)c(O)c(O)c3)c2)[C@@H]1OC(=O)c1cc(O)c(O)c(OC(=O)c2cc(O)c(O)c(O)c2)c1)c1cc(O)c(O)c(OC(=O)c2cc(O)c(O)c(O)c2)c1 [TANNIC ACID]
IC50 [10]: 13.2 µM

Source: ChEMBL document CHEMBL5500424, “New Strategies for Responding to SARS-CoV-2: The Present and Future of Dual-Target Drugs” (J Med Chem, 2024)
